Test results taken from PMC8329121 (Journal of Neuroimmune Pharmacology, 2021).
Positions count from the first letter of the chain named.

Columns and labels:
[1] = molecular target: T1, E2C/H547A hDAT (C90A/C306A/H547A) (Homo sapiens, UniProt Q01959, C306A/C90A/H547A); assay: MTSET assay, [3H]DA uptake in HEK293 cells; type: cell-based; conditions: 1 mM MTSET, HEK293, Fig. 8b
T1 construct: expressed in transfected cells; host or cells: HEK293 cells, transient, pcDNA3.1+
T1 sequence (Q01959 1-620 C90A/C306A/H547A): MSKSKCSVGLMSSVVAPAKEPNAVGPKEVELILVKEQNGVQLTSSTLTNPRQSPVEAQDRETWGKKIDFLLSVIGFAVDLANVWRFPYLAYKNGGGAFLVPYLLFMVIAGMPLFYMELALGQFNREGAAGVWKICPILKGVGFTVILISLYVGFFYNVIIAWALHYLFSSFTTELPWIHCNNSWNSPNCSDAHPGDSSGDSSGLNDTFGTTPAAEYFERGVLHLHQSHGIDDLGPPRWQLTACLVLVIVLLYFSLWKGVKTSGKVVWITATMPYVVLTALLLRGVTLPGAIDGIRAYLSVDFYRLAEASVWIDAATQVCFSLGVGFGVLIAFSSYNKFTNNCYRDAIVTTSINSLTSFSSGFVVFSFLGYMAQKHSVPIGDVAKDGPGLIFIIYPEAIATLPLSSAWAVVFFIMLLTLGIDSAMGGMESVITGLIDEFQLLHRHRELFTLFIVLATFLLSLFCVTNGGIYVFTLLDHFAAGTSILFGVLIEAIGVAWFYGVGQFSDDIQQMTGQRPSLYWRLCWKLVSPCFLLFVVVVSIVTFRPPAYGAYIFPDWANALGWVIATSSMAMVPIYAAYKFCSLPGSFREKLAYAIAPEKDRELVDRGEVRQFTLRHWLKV
Text: All mutants on hDAT were generated based on the predictions made using our computational model, as described previously using site-directed mutagenesis based on the wild-type hDAT (WT hDAT) sequence (NCBI, cDNA clone MGC: 164,608 IMAGE: 40,146,999) (Quizon et al. [2016]). The combination of hDAT mutations on Asp206 and His547 (Aspartic acid 206 to leucine and histidine 547 to alanine, D206L/H547A) were predicted to eliminate two hydrogen bonds between Tat and hDAT. In addition, the combination of mutations on Tyr88, Asp206, and His547 (tyrosine88 to phenylalanine and aspartic acid 206 to leucine and histidine 547 to alanine, Y88F/D206L/H547A) were predicted to eliminate three hydrogen bonds from the Tat-hDAT complex. Two extracellular cysteine90 and cysteine306 residues on WT hDAT were mutated to alanine as E2C hDAT (C90A/C306A hDAT), rendering the E2C hDAT MTSET-insensitive background (Pedersen et al. [2014]). A triple mutation of the two cysteine90 and 306 residues to alanine and […] to cysteine on WT hDAT was generated as E2C-I159C hDAT (C90A/C306A/I159C) for MTSET-sensitive construct. A combination of C90A/C306A/H547A was generated as E2C/H547A hDAT for MTSET-insensitive control for H547A. To determine whether H547A-enhanced DA transport is mediated by changing transporter conformation, two combinations of C90A/C306A/I159C/H547A and C90A/C306A/I159A/H547A were generated as E2C-I159C/H547A and E2C-I159A/H547A for positive and negative controls for MTSET sensitive background, respectively. Synthetic cDNA encoding hDAT subcloned into pcDNA3.1+ (provided by Dr. Haley E Melikian, University of Massachusetts) was used as a template to generate mutants using site-directed mutagenesis performed by GENEWIZ (South Plainfield, NJ). DNA sequencing was also performed by GENEWIZ to confirm the sequences of the mutant constructs. Plasmid DNA were propagated and purified using the Qiagen Hi-speed maxi prep plasmid DNA isolation kit (Qiagen, Valencia, CA, USA).
This assay was performed based on the previous report with minor modifications (Loland et al. [2004], [2008]). First, we generated five WT hDAT based plasmid construct for MTSET-insensitive or sensitive background as we described above. HEK293 cells were grown in poly-d-lysine coated plates at a density of 1 × 10^5 cells/cm^2 were transfected with different E2C- associated hDAT background constructs: E2C hDAT, E2C-I159C hDAT, E2C/H547A hDAT, E2C-I159C/H547A or E2C-I159A/H547A. Twenty-four hours after the transfection, cells were washed twice with 1× KRH buffer, and preincubated with or without the presence of 10 µM nomifensine (for non-specific uptake) and MTSET for 10 min at room temperature. MTSET at 1 mM final concentration was chosen based on a pilot study on optimizing MTSET concentrations (0.1, 0.5 or 1.0 mM). […] Because MTSET is easily hydrolyzed in solution, the amount needed for a 10 × stock was weighed out and dissolved in 1 × KRH buffer just right before adding to the assigned wells, for a 10-fold dilution (final concentration of 1 mM in final volume of 250 µl). […] Cells were immediately washed twice with ice-cold 1 × KRH buffer to terminate the reaction and were lysed rapidly with the addition of 1 % SDS. Cell lysates were collected after incubation for 1 h at room temperature and radioactivity was determined the next day.

[2] = molecular target: T2, E2C-I159C hDAT (C90A/C306A/I159C) (Homo sapiens, UniProt Q01959, C306A/C90A/I159C); design: method as in Loland et al. [2004], [2008]; conditions: 0.5 mM MTSET for 10 min; ref Loland et al. [2004], [2008]; cited from earlier work
T2 construct: expressed in transfected cells; host or cells: HEK293 cells, transient, pcDNA3.1+
T2 sequence (Q01959 1-620 C90A/I159C/C306A): T1 sequence (Q01959 1-620 C90A/C306A/H547A) with I159C, A547H

SMILES: C[N+](C)(C)CCSS(C)(=O)=O [MTSET, [2-(trimethylammonium)ethyl]-methanethiosulfonate]
- effect of MTSET on DA uptake [1]: no effect
- inhibition on E2C-I159C [2]: 40%
